Measurements as given in patent US11192867B2, “Microbiocidal oxadiazole derivatives” (SYNGENTA PARTICIPATIONS AG, priority 2016, dated 2021).

Legend:
[1] = system: Puccinia recondita f. sp. Tritici; test: Fungicidal activity against Puccinia recondita f. sp. Tritici / wheat / leaf disc preventative (brown rust); format: in vivo; settings: foliar, 200 ppm in the applied formulation, wheat leaf segments cv. Kanzler, inoculated 1 day after application, vs untreated control, read-out: disease control
In short: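 Single evaluation 7–9 d after spraying: % disease control compared with untreated leaf segments. Protocol: cv. Kanzler segments, preventative spray at 200 ppm, spore inoculation at day 1, 19° C., 75% rh, 12 h light/12 h dark.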

[2] = system: Glomerella lagenarium (Colletotrichum lagenarium); test: Fungicidal activity against Glomerella lagenarium (Colletotrichum lagenarium) liquid culture / cucumber / preventative (anthracnose); format: cell-based; settings: Colletotrichum orbiculare, 72 h; 20 ppm in the applied formulation; liquid culture (PDB), growth inhibition measured photometrically 3 to 4 days after application; vs untreated control; read-out: disease control
In short: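 In liquid culture, cryo-stored conidia in potato dextrose broth were exposed to compound delivered from DMSO solution. Growth inhibition was measured photometrically after 3 to 4 days at 24° C.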

[3] = system: Puccinia recondita f. sp. Tritici; test: Fungicidal activity against Puccinia recondita f. sp. Tritici / wheat / leaf disc curative (brown rust); format: in vivo; settings: foliar, 24 h, 200 ppm in the applied formulation, wheat leaf segments cv. Kanzler, applied 1 day after inoculation, vs untreated control, read-out: disease control
In short: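 Spray application came one day after spore inoculation of Kanzler wheat leaf segments kept on agar. Conditions: 19° C, 75% relative humidity, dark before treatment and 12 h light/12 h dark after. Efficacy = % disease control compared with untreated, 6–8 days post-application.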

Phakopsora pachyrhizi = test: Fungicidal activity against Phakopsora pachyrhizi / soybean / leaf disc preventative (Asian soybean rust); format: in vivo; settings: foliar, 200 ppm in the applied formulation, soybean leaf disks, vs untreated control, read-out: disease control
In short: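 Soybean leaf discs on water agar sprayed with compound diluted in water, then inoculated with spores on the lower surface one day later. Kept 24-36 h dark, 20 °C, 75% rh, then 12 h light/12 h dark. Percent disease control versus untreated scored 12-14 days after application.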

| SMILES | pest or weed control at 200 ppm [1] [%] | inhibition of growth at 20 ppm [2] [%] | pest or weed control at 200 ppm [3] [%] | melting point [°C] | pest or weed control at 200 ppm (Phakopsora pachyrhizi) [%] |
| --- | --- | --- | --- | --- | --- |
| CCON=CCCNC(=O)c1ccc(-c2noc(C(F)(F)F)n2)c(F)c1 [Compound 1.161, N-(3-ethoxyiminopropyl)-3-fluoro-4-[5-(trifluoromethyl)-1,2,4-oxadiazol-3-yl]benzamide] | ≥ 80 | ≥ 80 | ≥ 80 | 108 to 110 | ≥ 80 |
| CCON=CCCNC(=O)c1ccc(-c2noc(C(F)(F)F)n2)cc1F [Compound 1.162, N-(3-ethoxyiminopropyl)-2-fluoro-4-[5-(trifluoromethyl)-1,2,4-oxadiazol-3-yl]benzamide] | ≥ 80 | ≥ 80 | ≥ 80 | 97 to 99 | ≥ 80 |
| CON=CCCNC(=O)c1ccc(-c2noc(C(F)(F)F)n2)cc1F [Compound 1.163, 2-fluoro-N-(3-methoxyimino-propyl)-4-[5-(trifluoromethyl)-1,2,4-oxadiazol-3-yl]benzamide] | ≥ 80 | ≥ 80 | ≥ 80 | 98 to 100 | ≥ 80 |
| CON=C(C)CNC(=O)c1ccc(-c2noc(C(F)(F)F)n2)c(F)c1 [Compound 1.164, 3-fluoro-N-(2-methoxyimino-propyl)-4-[5-(trifluoromethyl)-1,2,4-oxadiazol-3-yl]benzamide] | ≥ 80 | ≥ 80 | ≥ 80 | 131 to 134 | ≥ 80 |
| CCON=C(C)CNC(=O)c1ccc(-c2noc(C(F)(F)F)n2)c(F)c1 [Compound 1.165, N-(2-ethoxyiminopropyl)-3-fluoro-4-[5-(trifluoromethyl)-1,2,4-oxadiazol-3-yl]benzamide] | ≥ 80 | ≥ 80 | ≥ 80 | 120 to 124 | ≥ 80 |
| CON=CCNC(=O)c1ccc(-c2noc(C(F)(F)F)n2)c(F)c1 [Compound 1.166, 3-fluoro-N-(2-methoxyimino-ethyl)-4-[5-(trifluoromethyl)-1,2,4-oxadiazol-3-yl]benzamide] | ≥ 80 | ≥ 80 | ≥ 80 | 120 to 122 | ≥ 80 |
| C#CCO/N=C/CCNC(=O)c1ccc(-c2noc(C(F)(F)F)n2)cc1 [Compound 1.167, N-[(3E)-3-prop-2-ynoxyiminopropyl]-4-[5-(trifluoromethyl)-1,2,4-oxadiazol-3-yl]benzamide] | ≥ 80 | ≥ 80 | ≥ 80 | 89 to 91 | ≥ 80 |
| CC(C)ON=CCCNC(=O)c1ccc(-c2noc(C(F)(F)F)n2)cc1 [Compound 1.168, N-(3-isopropoxyimino-propyl)-4-[5-(trifluoromethyl)-1,2,4-oxadiazol-3-yl]benzamide] | ≥ 80 | ≥ 80 | ≥ 80 | 122 to 124 | ≥ 80 |
